# Earlier results in patent US9421268B2, “Pediatric oral liquid compositions containing nepadutant” (LABORATORI GUIDOTTI S.P.A., priority 2012, dated 2016).
# Bridge positions count the residues as written; N and C are the ends. Square brackets hold non-standard residues; d marks the D form. Peptide text beside a SMILES is read from it. * marks the point of attachment. NH(β-GlcNAc) = CC(=O)N[C@@H]1[C@@H](O)[C@H](O)[C@@H](CO)O[C@H]1N*; Dap = NC[C@H](N)C(=O)O
# What was measured:
# NK2 receptors = target: T1, NK2 receptors (Rattus norvegicus, UniProt P16610); conditions: oral, new born rats, basal parameters not altered; cited from earlier work
# T1 construct: from tissue; host or cells: intestine of new born rats (in vivo)
# T1 sequence (P16610 1-390): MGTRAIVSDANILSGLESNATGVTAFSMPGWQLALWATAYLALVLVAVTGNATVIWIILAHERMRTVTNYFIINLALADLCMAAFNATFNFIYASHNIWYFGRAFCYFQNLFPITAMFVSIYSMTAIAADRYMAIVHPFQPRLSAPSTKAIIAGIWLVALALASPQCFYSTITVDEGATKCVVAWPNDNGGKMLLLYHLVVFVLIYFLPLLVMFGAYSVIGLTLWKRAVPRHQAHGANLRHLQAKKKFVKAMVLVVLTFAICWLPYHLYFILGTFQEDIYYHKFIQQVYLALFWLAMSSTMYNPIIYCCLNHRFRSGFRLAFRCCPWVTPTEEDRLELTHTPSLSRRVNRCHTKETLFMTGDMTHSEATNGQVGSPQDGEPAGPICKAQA
# hyperalgesia = conditions: new born rats; cited from earlier work
# [1] = in vivo; cited from earlier work
smiles,measurement,setting,value
"CC(=O)N[C@@H]1[C@@H](O)[C@H](O)[C@@H](CO)O[C@H]1NC(=O)C[C@@H]1NC(=O)[C@H](CC(C)C)NC(=O)[C@@H]2CNC(=O)C[C@H](NC1=O)C(=O)N[C@@H](Cc1c[nH]c3ccccc13)C(=O)N[C@@H](Cc1ccccc1)C(=O)N2 [Nepadutant, [N^4-(2-acetylamino-2-deoxy-β-D-glucopyranosyl)-L-asparaginyl-L-α-triptophan-L-phenylalanyl-L-2,3-diaminopropio-nil-L-leucil]-C-4.2-N-3.5-lattame-C-1.6-N-2.1-lattame] (cyclo(D(NH(β-GlcNAc))DWF[Dap]L); lactam 2-5)",time after administration up to which the increase in intestinal transit is blocked,NK2 receptors,up to 24 hours
same,efficacy in a model of hyperalgesia,hyperalgesia,effective
same,oral absorption,[1],absorbed
